Assay [1] has as its target T1, 5-hydroxytryptamine receptor 1A (Homo sapiens, UniProt P08908).
T1 sequence (P08908 whole entry): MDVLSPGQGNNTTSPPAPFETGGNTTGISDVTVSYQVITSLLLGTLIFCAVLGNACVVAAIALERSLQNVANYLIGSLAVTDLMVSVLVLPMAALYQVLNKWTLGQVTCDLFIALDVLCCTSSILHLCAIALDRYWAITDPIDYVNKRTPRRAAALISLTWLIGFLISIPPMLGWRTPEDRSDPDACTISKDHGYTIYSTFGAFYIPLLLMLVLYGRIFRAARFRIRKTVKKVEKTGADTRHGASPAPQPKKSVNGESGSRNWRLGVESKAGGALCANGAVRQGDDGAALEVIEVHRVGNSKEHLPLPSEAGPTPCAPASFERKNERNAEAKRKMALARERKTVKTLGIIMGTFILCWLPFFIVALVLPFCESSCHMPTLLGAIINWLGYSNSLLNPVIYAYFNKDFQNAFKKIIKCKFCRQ
The assay is described as follows: Binding affinity for 5-hydroxytryptamine 1A receptor.

For assay [2], the target named is 5-hydroxytryptamine receptor 1D (Sus scrofa, UniProt P79400). The assay is described as follows: Binding affinity for 5-hydroxytryptamine 1D receptor.
Assay [3] concerns the target T2, 5-hydroxytryptamine receptor 2C (Homo sapiens, UniProt P28335).
T2 sequence (P28335 whole entry): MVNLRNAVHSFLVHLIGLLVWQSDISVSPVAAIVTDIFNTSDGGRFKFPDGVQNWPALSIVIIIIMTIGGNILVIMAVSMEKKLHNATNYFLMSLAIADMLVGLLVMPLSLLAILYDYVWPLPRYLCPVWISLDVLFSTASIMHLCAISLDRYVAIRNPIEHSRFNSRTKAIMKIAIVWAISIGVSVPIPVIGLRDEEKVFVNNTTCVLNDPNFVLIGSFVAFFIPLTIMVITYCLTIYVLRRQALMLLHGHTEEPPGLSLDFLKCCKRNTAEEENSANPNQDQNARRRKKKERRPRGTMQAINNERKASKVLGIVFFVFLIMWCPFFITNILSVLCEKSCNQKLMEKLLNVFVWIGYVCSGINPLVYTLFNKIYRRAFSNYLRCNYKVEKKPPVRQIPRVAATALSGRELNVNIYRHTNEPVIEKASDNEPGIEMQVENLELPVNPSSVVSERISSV
The assay is described as follows: Binding affinity towards 5-hydroxytryptamine 2C receptor.

Assay [4] has as its target T3, Serotonin 3 (5-HT3) receptor (Rattus norvegicus, UniProt P35563+Q9JJ16).
T3 sequence (P35563 whole entry): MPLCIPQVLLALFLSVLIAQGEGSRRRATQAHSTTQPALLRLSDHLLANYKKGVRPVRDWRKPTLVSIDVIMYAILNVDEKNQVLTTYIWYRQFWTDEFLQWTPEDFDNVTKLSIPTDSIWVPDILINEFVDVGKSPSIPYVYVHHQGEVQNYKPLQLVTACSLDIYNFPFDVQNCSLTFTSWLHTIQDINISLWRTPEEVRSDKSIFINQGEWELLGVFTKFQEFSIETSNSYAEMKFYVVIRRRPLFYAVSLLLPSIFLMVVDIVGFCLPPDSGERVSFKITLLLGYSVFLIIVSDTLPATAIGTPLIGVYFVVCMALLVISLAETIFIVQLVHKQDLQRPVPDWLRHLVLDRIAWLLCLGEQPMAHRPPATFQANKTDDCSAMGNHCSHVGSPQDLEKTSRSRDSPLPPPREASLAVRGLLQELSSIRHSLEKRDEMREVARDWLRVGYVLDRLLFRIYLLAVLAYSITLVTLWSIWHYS
T3 sequence (Q9JJ16 whole entry): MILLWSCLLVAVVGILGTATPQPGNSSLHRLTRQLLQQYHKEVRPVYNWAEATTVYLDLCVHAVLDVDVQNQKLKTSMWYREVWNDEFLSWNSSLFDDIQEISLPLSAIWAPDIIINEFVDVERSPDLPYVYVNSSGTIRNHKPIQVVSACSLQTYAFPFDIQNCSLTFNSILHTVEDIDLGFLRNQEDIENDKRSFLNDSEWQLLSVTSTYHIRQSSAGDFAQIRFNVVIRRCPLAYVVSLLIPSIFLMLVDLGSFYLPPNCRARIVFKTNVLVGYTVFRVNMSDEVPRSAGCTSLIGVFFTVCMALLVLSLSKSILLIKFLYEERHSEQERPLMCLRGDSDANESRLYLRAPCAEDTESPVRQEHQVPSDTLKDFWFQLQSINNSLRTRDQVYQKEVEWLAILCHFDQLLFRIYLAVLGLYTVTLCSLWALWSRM
Description: Binding affinity towards 5-hydroxytryptamine 3 receptor. Type of assay: protein-complex assay.

Assay [5] has as its target 5-hydroxytryptamine receptor 1B (Rattus norvegicus, UniProt P28564). Description: Binding affinity for 5-hydroxytryptamine 1B receptor.
Assay [6] addresses 5-hydroxytryptamine receptor 2A (Bos taurus, UniProt Q75Z89). The assay is described as follows: Binding affinity towards 5-hydroxytryptamine 2A receptor.

The structures appear in SMILES notation.

5-hydroxytryptamine receptor 1D, sequence (P79400 whole entry): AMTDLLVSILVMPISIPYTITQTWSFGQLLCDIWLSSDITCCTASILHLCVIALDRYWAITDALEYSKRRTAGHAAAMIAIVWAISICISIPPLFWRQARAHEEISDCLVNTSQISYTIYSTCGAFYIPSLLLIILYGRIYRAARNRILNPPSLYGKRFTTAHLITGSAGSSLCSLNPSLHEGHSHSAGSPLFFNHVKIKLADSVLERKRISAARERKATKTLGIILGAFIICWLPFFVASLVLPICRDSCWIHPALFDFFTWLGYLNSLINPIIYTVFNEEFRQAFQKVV
5-hydroxytryptamine receptor 2A, sequence (Q75Z89 whole entry): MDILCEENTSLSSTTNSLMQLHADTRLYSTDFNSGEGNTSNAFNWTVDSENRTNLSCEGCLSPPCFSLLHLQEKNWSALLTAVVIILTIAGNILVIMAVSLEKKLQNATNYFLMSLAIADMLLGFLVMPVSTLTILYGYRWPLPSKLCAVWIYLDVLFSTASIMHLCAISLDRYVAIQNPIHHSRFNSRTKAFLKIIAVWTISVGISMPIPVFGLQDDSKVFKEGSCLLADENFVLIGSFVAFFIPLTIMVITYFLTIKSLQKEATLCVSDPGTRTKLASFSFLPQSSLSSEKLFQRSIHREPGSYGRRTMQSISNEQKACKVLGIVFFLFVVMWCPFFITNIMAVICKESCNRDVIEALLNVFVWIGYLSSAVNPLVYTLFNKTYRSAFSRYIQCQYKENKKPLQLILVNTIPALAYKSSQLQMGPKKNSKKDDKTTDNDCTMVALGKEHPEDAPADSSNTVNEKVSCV
5-hydroxytryptamine receptor 1B, sequence (P28564 whole entry): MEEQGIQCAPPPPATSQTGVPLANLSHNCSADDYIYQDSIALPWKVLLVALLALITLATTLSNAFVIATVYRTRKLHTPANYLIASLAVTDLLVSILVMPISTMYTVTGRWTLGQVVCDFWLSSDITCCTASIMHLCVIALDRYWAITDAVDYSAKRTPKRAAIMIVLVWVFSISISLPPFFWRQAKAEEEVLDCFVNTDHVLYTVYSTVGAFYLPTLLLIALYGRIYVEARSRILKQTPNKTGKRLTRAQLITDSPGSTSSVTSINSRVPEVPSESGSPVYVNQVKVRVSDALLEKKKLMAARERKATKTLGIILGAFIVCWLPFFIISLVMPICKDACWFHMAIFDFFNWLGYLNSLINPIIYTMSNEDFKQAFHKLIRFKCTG

With `O=C(c1ccc(F)cc1)N1CCN(c2nc3ccsc3n3cccc23)CC1`, the IC50 (in general, the midpoint of a concentration-inhibition curve) is 102 µM in assay [1]; 129 µM in assay [2]; above 100 µM in assay [3]; 1050 µM in assay [4]; 112 µM in assay [5]; 151 µM in assay [6].

For `c1ccc(C2CCN(c3nc4ccsc4n4cccc34)CC2)cc1`, the IC50 in assay [1], in assay [2], in assay [3], in assay [4], in assay [5] and in assay [6] was above 100 µM throughout.

With `CCCN1CCN(c2nc3ccsc3n3cccc23)CC1`, the IC50 in assay [1] is 0.0933 µM; in assay [2], 0.135 µM; in assay [3] it was 0.347 µM; in assay [4], 0.0603 µM; in assay [5], 1.1 µM; in assay [6], 1.07 µM.

In the case of `c1cc2c(N3CCN(Cc4ccc5c(c4)OCO5)CC3)nc3ccsc3n2c1`, the IC50 in assay [1] is 0.263 µM; in assay [2], 36.3 µM; in assay [3], 0.457 µM; in assay [4] it was 0.00257 µM; in assay [5] it was 3.09 µM; in assay [6], 11 µM.

Turning to `CN1CCN(c2nc3sc(-c4ccccc4)cc3n3cccc23)CC1`, the IC50 in assay [1] was 15.5 µM; in assay [2] it was 60.3 µM; in assay [3] it was 2.19 µM; in assay [4] it was 21.4 µM; in assay [5], above 100 µM; in assay [6] it was 13.8 µM.

As for `c1cc2c(N3CCOCC3)nc3ccsc3n2c1`, the IC50 in assay [1] is 32.4 µM; in assay [2], 93.3 µM; in assay [3], 41.7 µM; in assay [4], 20.9 µM; in assay [5], above 100 µM; in assay [6] it was 39.8 µM.

Regarding `c1cc2c(N3CCCCC3)nc3ccsc3n2c1`, the IC50 is 64.6 µM in assay [1]; above 100 µM in assay [2]; 57.5 µM in assay [3]; 72.4 µM in assay [4]; above 100 µM in assay [5]; above 100 µM in assay [6].

Regarding `Fc1ccc(CN2CCN(Cc3nc4ccsc4n4cccc34)CC2)cc1`, the IC50 in assay [1] is 7.76 µM; in assay [2] it was 38 µM; in assay [3] it was 14.1 µM; in assay [4], 18.2 µM; in assay [5] it was 19.5 µM; in assay [6], 13.8 µM.

In the case of `c1ccc(N2CCN(c3nc4ccsc4n4cccc34)CC2)cc1`, the half-inhibitory concentration (IC50) in assay [1], in assay [2], in assay [3], in assay [4] and in assay [6] was above 100 µM each time.

As to `CN1CCN(c2nc3cc(-c4ccccc4)sc3n3cccc23)CC1`, the IC50 in assay [1] was 4.9 µM; in assay [2] it was 87.1 µM; in assay [3], 11.7 µM; in assay [4], 19.1 µM; in assay [5], 14.8 µM; in assay [6] it was 7.41 µM.

`c1ccc(CN2CCN(c3nc4scc(-c5ccccc5)c4n4cccc34)CC2)cc1`: the IC50 was 25.7 µM in assay [1]; 30.9 µM in assay [2]; 2.63 µM in assay [3]; 6.76 µM in assay [4]; 24 µM in assay [5]; 63.1 µM in assay [6].

Regarding `c1ccc2nc(N3CCNCC3)ccc2c1` [QUIPAZINE], the IC50 in assay [2] is 3.72 µM; in assay [3], 0.0617 µM; in assay [5], 7.08 µM; in assay [6] it was 3.47 µM.

For `Clc1ccc(CN2CCN(c3nc4ccsc4n4cccc34)CC2)c(Cl)c1`, the IC50 in assay [1] is 0.661 µM; in assay [2], 3.09 µM; in assay [3], 0.851 µM; in assay [4] it was 0.0166 µM; in assay [5] it was 4.68 µM; in assay [6] it was 7.41 µM.

With `Clc1ccc(C(c2ccccc2)N2CCN(c3nc4ccsc4n4cccc34)CC2)cc1` (stereo not given), the concentration for half-maximal inhibition (IC50) was 204 µM in assay [1]; above 100 µM in assay [2]; 282 µM in assay [3]; 1.38 µM in assay [4]; above 100 µM in assay [5]; above 100 µM in assay [6].

Consider `C=CCN1CCN(c2nc3ccsc3n3cccc23)CC1`, for which the IC50 in assay [1] is 0.12 µM; in assay [2], 0.38 µM; in assay [3], 0.17 µM; in assay [4], 0.00263 µM; in assay [5], 0.575 µM; in assay [6], 0.851 µM.

In the case of `FC(F)(F)c1cccc(N2CCN(c3nc4ccsc4n4cccc34)CC2)c1`, the IC50 in assay [1] is 0.288 µM; in assay [2], 1.26 µM; in assay [3] it was 0.155 µM; in assay [4], 1.58 µM; in assay [6], 1.78 µM.

In the case of `FC(F)(F)c1cccc(N2CCN(c3nc4sccc4n4cccc34)CC2)c1`, the IC50 in assay [1] was 12.6 µM; in assay [2], 57.5 µM; in assay [3], 5.89 µM; in assay [4], 74.1 µM; in assay [5] it was 7.41 µM; in assay [6], 832 µM.

For the compound `c1ccc(CN2CCN(c3nc4sc(-c5ccccc5)cc4n4cccc34)CC2)cc1`, the IC50 in assay [1] is 389 µM; in assay [2], 537 µM; in assay [3], 1000 µM; in assay [4] it was 39.8 µM; in assay [5], above 100 µM; in assay [6], above 100 µM.

In the case of `Cc1sc2c(nc(N3CCN(Cc4ccccc4)CC3)c3cccn32)c1C`, the IC50 was 126 µM in assay [1]; 525 µM in assay [2]; 155 µM in assay [3]; 3.63 µM in assay [4]; above 100 µM in assay [5]; 174 µM in assay [6].

`O=C(CN1CCN(c2nc3ccsc3n3cccc23)CC1)N1CCCC1`: the IC50 in assay [1] is 0.407 µM; in assay [2], 251 µM; in assay [3], 8.32 µM; in assay [4], 1.48 µM; in assay [5], above 100 µM; in assay [6] it was 14.5 µM.

For the compound `C1=CCN(c2nc3ccsc3n3cccc23)CC1`, the IC50 is 457 µM in assay [1]; above 100 µM in assay [2]; above 100 µM in assay [3]; above 100 µM in assay [4]; 112 µM in assay [6].

As to `CN1CCN(c2nc3cc(C(F)(F)F)ccc3n3cccc23)CC1`, the IC50 in assay [1] was 0.0468 µM; in assay [2] it was 0.123 µM; in assay [4], 1.32 µM; in assay [5], 0.339 µM; in assay [6], 18.6 µM.

Take `CCOC(=O)N1CCN(c2nc3ccsc3n3cccc23)CC1`: the IC50 in assay [1] is 33.9 µM; in assay [2] it was 513 µM; in assay [3] it was above 100 µM; in assay [4], 204 µM; in assay [6], 123 µM.

Consider `CN1CCN(c2nc3sccc3n3cccc23)CC1`, for which the concentration for half-maximal inhibition (IC50) in assay [1] is 0.0525 µM; in assay [2] it was 0.912 µM; in assay [4], 0.24 µM; in assay [6], 2.34 µM.

Consider `c1cc2c(N3CCN(Cc4ccc5c(c4)OCO5)CC3)nc3sccc3n2c1`, for which the IC50 was 20 µM in assay [2]; 2.57 µM in assay [3]; 0.00102 µM in assay [4]; 7.08 µM in assay [5]; 24.5 µM in assay [6].

`c1ccc(-c2cc3nc(N4CCNCC4)c4cccn4c3s2)cc1`: the IC50 is 35.5 µM in assay [2]; 10 µM in assay [3]; 2.45 µM in assay [4]; above 100 µM in assay [5]; 302 µM in assay [6].
